This assay deals with Isolated Rat Bladder Strips. The experiment in a line: Inhibition of Contractions in Isolated Rat Bladder Strips (15 mM KCl-enhanced contractions). Format: cell-based, Sprague-Dawley rats. The conditions noted are these: 0.5 h, 30 min challenge; for IC50: concentration eliciting 50% inhibition of pre-drug contractile activity; for inhibition at 30 µM: read-out: Inhibition of Force (%) at (x) μM. The source says:
Smooth muscle relaxing activity of the compounds of this invention was established in accordance with standard pharmaceutically accepted test procedures in representative compounds as follows:
Sprague-Dawley rats (150-200 g) are rendered unconscious by CO2 asphyxiation and then euthanized by cervical dislocation. The bladder is removed into warm (37 deg. C.) physiological salt solution (PSS) of the following composition (mM): NaCl, 118.4; KCl, 4.7; […]; NaHCO3, 24.9; KH2 PO4, 1.2; glucose, 11.1; EDTA, 0.023; gassed with […]; pH 7.4. The bladder is opened and then cut into strips 1-2 mm in width and 7-10 mm in length. The strips are subsequently suspended in a 10 mL tissue bath under an initial resting tension of 1.5 g. The strips are held in place by two surgical clips one of which is attached to fixed hook while the other is attached to an isometric force transducer. […] The carbachol is then washed out and the tissue allowed to relax to its resting level of activity. Following 1 further 30 min period of recovery an additional 15 mM KCl are introduced into the tissue bath. This increase in KCl concentration results in a large increase in the amplitude of spontaneous contractions (and initiation of contractions in previously quiescent strips) superimposed upon a small increase in basal tone. Following stabilization of this enhanced level of contractile activity, incremental increases in the concentration of test compound or vehicle are introduced into the tissue bath. Contractile activity is measured for each compound or vehicle concentration during the last […] of a 30 min challenge.
Isometric force developed by the bladder strips is measured using a […] to elicit 50% inhibition of pre-drug contractile activity (IC50 concentration) is calculated from this concentration-response curve. The maximum percentage inhibition of contractile activity evoked by a test compound is also recorded for concentrations of test compound<or equal to 30 μM.

We go through five compounds from patent publication US5466712A, “Substituted n-aryl-1,2-diaminocyclobutene-3,4-diones” (American Home Products Corporation, priority 1994, dated 1995).

Consider `C[C@@H](Nc1c(Nc2ccc(C#N)cc2)c(=O)c1=O)c1ccccc1` [Example 1, 4-[3,4-Dioxo-2-((R)-1-phenyl-ethylamino)-cyclobut-1-enylamino]-benzonitrile], for which the IC50 was determined as 0.056 µM.
Turning to `C[C@@H](Nc1c(Nc2ccncc2)c(=O)c1=O)c1ccccc1` [Example 4, 3-((R)-1-Phenyl-ethylamino)-4-(pyridin-4-ylamino)-cyclobut-3-ene-1,2-dione], the IC50 was determined as 2.3 µM.
With `C[C@H](Nc1c(Nc2ccc(C#N)cc2)c(=O)c1=O)c1ccccc1` [Example 5, 4-[3.4-Dioxo-2-((S)-1-phenyl-ethylamino)-cyclobut-1-enylamino]-benzonitrile], the inhibition at 30 µM came out at 38%.
Consider `CC(C)(Nc1c(Nc2ccc(C#N)cc2)c(=O)c1=O)c1ccccc1` [Example 9, 4-[3,4-Dioxo-2-(1-methyl-1-phenyl-ethylamino)-cyclobut-1-enylamino]-benzonitrile], for which the inhibition at 30 µM turned out to be 22%.
Take `CC[C@H](Nc1c(Nc2ccc(C#N)cc2)c(=O)c1=O)c1ccccc1` [Example 11, 4-[3,4-Dioxo-2-((S)-1-phenyl-propylamino)-cyclobut-1-enylamino]-benzonitrile]: the inhibition at 30 µM amounted to 28%.
